Assay [1] relates to IL-4 stimulated expression of CD23 in human Ramos B cells (JAK-1 and JAK-3). The assay can be described thus: Assay for Ramos B-Cell Line Stimulated with IL-4 (CD23 upregulation, FACS). The class given is cell-based. The following applies: Ramos B-cell line stimulated with IL-4; CD23 expression by FACS; read-out: IC50, Example 41. In short, it runs like this: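 Read-out: anti-CD23-PE flow cytometry on Ramos B cells, giving IC50. Cells (5×10^4 per point, RPMI + 5% serum) get compound or DMSO for 1 h at 37 °C, then IL-4 50 units/mL final for 20-24 h.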

Assay [2] has as its system Primary human T-cells. Briefly: Primary Human T-Cell Proliferation Assay Stimulated with IL-2 (CellTiter-Glo). Type of assay: cell-based. The following applies: primary human T-cell proliferation stimulated with IL-2; read-out: IC50, Example 42. The gist of the method:
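Peripheral blood T-cells pre-activated with anti-CD3/anti-CD28 and IL-2 were washed free of IL-2, then cultured with compound plus IL-2 for 72 hours at 37° C, duplicate wells. Viability read as ATP by CellTiter-Glo luminescence; IC50 reported.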
Background: In ATP-based viability assays light output follows the ATP content of the culture.

One may read the IC50 as the concentration needed to halve the response being measured.

For `CCN(CC)CCNS(=O)(=O)c1cccc(Nc2ncc(F)c(Nc3ccc(OCc4cc(C)on4)cc3)n2)c1` [Compound I-241, N2-[3-(2-N,N-Diethylaminoethyl)aminosulfonylphenyl)-5-fluoro-N4-[4-(5-methylisoxazol-3-yl)methyleneoxyphenyl]-2,4-pyrimidinediamine], the IC50 in assay [1] turned out to be 266 nM; in assay [2] it was 442 nM.
For `CCN(CC)CCNS(=O)(=O)c1cccc(Nc2ncc(F)c(Nc3ccc(OCc4cc(C)on4)c(C)c3)n2)c1` [Compound I-244, N2-[3-(2-N,N-Diethylaminoethyl)aminosulfonylphenyl)-5-fluoro-N4-[3-methyl-4-(5-methylisoxazol-3-yl)methyleneoxyphenyl]-2,4-pyrimidinediamine], the IC50 amounted to 285 nM in assay [1] and 1410 nM in assay [2].
For `CCN(CC)CCNS(=O)(=O)c1ccc(Nc2ncc(F)c(Nc3ccc(OCc4cc(C)on4)c(C)c3)n2)cc1` [Compound I-245, N2-[4-(2-N,N-Diethylaminoethyl)aminosulfonylphenyl)-5-fluoro-N4-[3-methyl-4-(5-methylisoxazol-3-yl)methyleneoxyphenyl]-2,4-pyrimidinediamine] the same measures were 202 nM and 1740 nM.
For `CCN(CC)CCNS(=O)(=O)c1ccc(Nc2ncc(F)c(Nc3ccc(OCc4cc(C)on4)cc3)n2)cc1` [Compound I-246, N2-[4-(2-N,N-Diethylaminoethyl)aminosulfonylphenyl)-5-fluoro-N4-[4-(5-methylisoxazol-3-yl)methyleneoxyphenyl]-2,4-pyrimidinediamine] the same measures were 106 nM and 182 nM.
Turning to `Cc1cc(COc2ccc(Nc3nc(Nc4cccc(S(=O)(=O)N(Cc5oc(=O)oc5C)Cc5oc(=O)oc5C)c4)ncc3F)cc2)no1` [Compound I-248, N2-{3-[N-N-Di-[(5-Methyl-1,3-dioxolene-2-one-4-yl)methylene]]aminosulfonylphenyl}-5-fluoro-N4-[4-(5-methylisoxazol-3-yl)methyleneoxyphenyl]-2,4-pyrimidinediamine], the figures for the IC50 in assay [1] and in assay [2] were 388 nM and 138 nM, respectively.
Take `Cc1noc(COc2cccc(Nc3nc(Nc4cccc(S(N)(=O)=O)c4)ncc3F)c2)n1` [Compound I-252, N2-(3-Aminosulfonylphenyl)-5-fluoro-N4-[3-(3-methyl-1,2,4-oxadiazol-5-yl)methyleneoxyphenyl]-2,4-pyrimidinediamine]: the IC50 in assay [1] was 90.6 nM; in assay [2], 558 nM.
`Cc1noc(COc2cccc(Nc3nc(Nc4ccc(C)c(S(N)(=O)=O)c4)ncc3F)c2)n1` [Compound I-254, N2-(3-Aminosulfonyl-4-methylphenyl)-5-fluoro-N4-[3-(3-methyl-1,2,4-oxadiazol-5-yl)methyleneoxyphenyl]-2,4-pyrimidinediamine]: the IC50 turned out to be 155 nM in assay [1] and 1910 nM in assay [2].
Regarding `CNS(=O)(=O)c1cc(Nc2ncc(F)c(Nc3cccc(OCc4nc(C)no4)c3)n2)ccc1C` [Compound I-255, 5-Fluoro-N2-[3-(N-methylaminosulfony)-4-methylphenyl]-N4-[3-(3-methyl-1,2,4-oxadiazol-5-yl)methyleneoxyphenyl]-2,4-pyrimidinediamine], the results for the IC50 in assay [1] and in assay [2] were 256 nM and 2860 nM, respectively.
Regarding `CCN(CC)CCNS(=O)(=O)c1ccc(Nc2ncc(F)c(Nc3cccc(OCc4nc(C)no4)c3)n2)cc1` [Compound I-256, N2-[4-(2-N,N-Diethylaminoethyl)aminosulfonylphenyl)-5-fluoro-N4-[3-(3-methyl-1,2,4-oxadiazol-5-yl)methyleneoxyphenyl]-2,4-pyrimidinediamine], the IC50 in assay [1] was determined as 282 nM; in assay [2], 38200 nM.
Regarding `Cc1noc(COc2ccc(Nc3nc(Nc4cccc(S(=O)(=O)NCc5oc(=O)oc5C)c4)ncc3F)cc2)n1` [Compound I-257, N2-{3-[(N-5-Methyl-1,3-dioxolene-2-one-4-yl)methylene]aminosulfonylphenyl}-5-fluoro-N4-[4-(3-methyl-1,2,4-oxadiazol-5-yl)methyleneoxyphenyl]-2,4-pyrimidinediamine], the IC50 is 145 nM in assay [1] and 102 nM in assay [2].
For `Cc1noc(COc2ccc(Nc3nc(Nc4cccc(S(N)(=O)=O)c4)ncc3F)cc2)n1` [Compound I-258, N2-(3-Aminosulfonylphenyl)-5-fluoro-N4-[4-(3-methyl-1,2,4-oxadiazol-5-yl)methyleneoxyphenyl]-2,4-pyrimidinediamine] the same measures were 28 nM and 55.4 nM.
The matching figures for `Cc1noc(COc2ccc(Nc3nc(Nc4ccc(C)c(S(N)(=O)=O)c4)ncc3F)cc2)n1` [Compound I-259, N2-(3-Aminosulfonyl-4-methylphenyl)-5-fluoro-N4-[4-(3-methyl-1,2,4-oxadiazol-5-yl)methyleneoxyphenyl]-2,4-pyrimidinediamine]: 27.9 nM and 65.8 nM.
For `CNS(=O)(=O)c1cc(Nc2ncc(F)c(Nc3ccc(OCc4nc(C)no4)cc3)n2)ccc1C` [Compound I-260, 5-Fluoro-N2-[3-N-(methyl)aminosulfonyl-4-methylphenyl)-N4-[4-(3-methyl-1,2,4-oxadiazol-5-yl)methyleneoxyphenyl]-2,4-pyrimidinediamine] the same measures were 94.8 nM and 223 nM.
For `CCN(CC)CCNS(=O)(=O)c1ccc(Nc2ncc(F)c(Nc3ccc(OCc4nc(C)no4)cc3)n2)cc1` [Compound I-263, N2-[4-(2-N,N-Diethylaminoethyl)aminosulfonylphenyl)-5-fluoro-N4-[4-(3-methyl-1,2,4-oxadiazol-5-yl)methyleneoxyphenyl]-2,4-pyrimidinediamine], the IC50 in assay [1] was 124 nM; in assay [2], 64.4 nM.
For `Cc1noc(COc2ccc(Nc3nc(Nc4cc(C)c(Cl)c(S(N)(=O)=O)c4)ncc3F)cc2)n1` [Compound I-265, N2-(3-Aminosulfonyl-4-chloro-5-methylphenyl)-5-fluoro-N4-[4-(3-methyl-1,2,4-oxadiazol-5-yl)methyleneoxyphenyl]-2,4-pyrimidinediamine] the same measures were 42.3 nM and 39.7 nM.
For `Cc1noc(COc2ccc(Nc3nc(Nc4ccc(F)c(S(N)(=O)=O)c4)ncc3F)cc2)n1` [Compound I-266, N2-(3-Aminosulfonyl-4-fluorophenyl)-5-fluoro-N4-[4-(3-methyl-1,2,4-oxadiazol-5-yl)methyleneoxyphenyl]-2,4-pyrimidinediamine] the same measures were 85.1 nM and 201 nM.
The matching figures for `Cc1noc(CCc2ccc(Nc3nc(Nc4ccc(F)c(S(N)(=O)=O)c4)ncc3F)cc2)n1` [Compound I-267, N2-(3-Aminosulfonyl-4-fluorophenyl)-5-fluoro-N4-[4-(3-methyl-1,2,4-oxadiazol-5-yl)ethylenephenyl]-2,4-pyrimidinediamine]: 328 nM and 2020 nM.
`Cc1noc(COc2ccc(Nc3nc(Nc4ccc(S(N)(=O)=O)cc4)ncc3F)cc2)n1` [Compound I-268, N2-(4-Aminosulfonylphenyl)-5-fluoro-N4-(4-[3-methyl-1,2,4-oxadiazol-5-yl]methyleneoxyphenyl)-2,4-pyrimidinediamine]: the values for the IC50 in assay [1] and in assay [2] were 60.7 nM and 140 nM, respectively.
The matching figures for `Cc1nc(COc2ccc(Nc3nc(Nc4ccc(S(N)(=O)=O)cc4)ncc3F)cc2)no1` [Compound I-275, N2-(4-Aminosulfonyl)phenyl-5-fluoro-N4-[4-(5-methyl-1,2,4-oxadiazol-3-yl)methoxy]phenyl-2,4-pyrimidinediamine]: 223 nM and 577 nM.
Regarding `Cc1nc(COc2ccc(Nc3nc(Nc4cccc(S(N)(=O)=O)c4)ncc3F)cc2)no1` [Compound I-276, N2-(3-Aminosulfonyl)phenyl-5-fluoro-N4-[4-(5-methyl-1,2,4-oxadiazol-3-yl)methoxy]phenyl-2,4-pyrimidinediamine], the half-maximal inhibitory concentration (IC50) in assay [1] was 135 nM; in assay [2], 106 nM.
The matching figures for `Cc1nnc(COc2ccc(Nc3nc(Nc4cccc(S(N)(=O)=O)c4)ncc3F)cc2)o1` [Compound I-277, N2-(3-aminosulfonylphenyl)-5-fluoro-N4-[4-(5-methyl-1,3,4-oxadiazol-2-yl)methyleneoxyphenyl]-2,4-pyrimidinediamine]: 151 nM and 91.5 nM.
As for `Cc1nnc(COc2ccc(Nc3nc(Nc4ccc(F)c(S(N)(=O)=O)c4)ncc3F)cc2)o1` [Compound I-278, N2-(3-Aminosulfonyl-4-fluorophenyl)-5-fluoro-N4-[4-(5-methyl-1,3,4-oxadiazol-2-yl)methyleneoxyphenyl]-2,4-pyrimidinediamine], the IC50 stood at 193 nM in assay [1] and 412 nM in assay [2].
The matching figures for `Cc1nc(COc2ccc(Nc3nc(Nc4ccc(C)c(S(N)(=O)=O)c4)ncc3F)cc2)cs1` [Compound I-280, N2-(3-Aminosulfonyl-4-methylphenyl)-5-fluoro-N4-[4-(2-methylthiazol-4-yl)methyleneoxyphenyl]-2,4-pyrimidinediamine]: 145 nM and 978 nM.
For the compound `Cc1nc(COc2ccc(Nc3nc(Nc4cccc(S(N)(=O)=O)c4)ncc3F)cc2)cs1` [Compound I-281, N2-(3-Aminosulfonylphenyl)-5-fluoro-N4-[4-(2-methylthiazol-4-yl)methyleneoxyphenyl]-2,4-pyrimidinediamine], the IC50 was 93.2 nM in assay [1] and 90.4 nM in assay [2].
With `CNS(=O)(=O)c1cc(Nc2ncc(F)c(Nc3ccc(OCc4csc(C)n4)cc3)n2)ccc1C` [Compound I-282, 5-Fluoro-N2-[3-(N-methylaminosulfony)-4-methylphenyl]-N4-[4-(2-methylthiazol-4-yl)methyleneoxyphenyl]-2,4-pyrimidinediamine], the IC50 in assay [1] is 339 nM; in assay [2], 697 nM.

The values are drawn from patent US11827628B2, “Compositions and methods for inhibition of the JAK pathway” (Rigel Pharmaceuticals, Inc., priority 2005, dated 2023).
